Earlier results in patent US20200069758A1, “COMPOSITION FOR USE IN THE PREVENTIVE AND/OR CURATIVE TREATMENT OF NON-ALCOHOLIC FATTY LIVER DISEASE” (NORMAPHAR SA, priority 2018, published 2020).

Conditions: background art statement; for complications / mortality on administration: long-term or high-dose administration

| Molecule | reduction of non-alcoholic fatty liver disease (simple fatty liver disease, NASH) | complications / mortality on administration |
| --- | --- | --- |
| CN(C)C(=N)N=C(N)N [metformin] | failed to significantly reduce | – |
| CCc1ccc(CCOc2ccc(CC3SC(=O)NC3=O)cc2)nc1 (stereo not shown) [pioglitazone] | – | heart failure, osteoporosis and weight gain |
| Vitamin E | reductions were observed in the inflammation and non-alcoholic fatty liver disease | increases all-cause mortality |
